Assays:
T7 tumours = assay: Challenge of ingenol mebutate cured mice with T7 cells; type: in vivo, SKH1/hr mice; settings: challenge 110 or 159 days after cure with 0.25% topical
Protocol: To determine if cure of primary T7 tumours in inbred SKH1/hr mice would protect mice from subsequent challenge with the same tumour, T7 cells were injected s.c. in female SKH1/hr mice that had primary T7 tumours previously cured by topical treatment with 0.25% ingenol mebutate. There were 2 groups of mice, mice that had primary tumours cured by ingenol mebutate 110 (group 1) and 159 (group 2) days prior to challenge. Included in the study was a control group that had not previously received T7 or ingenol mebutate treatment. Tumour growth is monitored over time. Mice are culled when tumours reached 100 mm^2.
Mice are inoculated s.c. with 2×10^4 T7 cells 110 (Day 110) or 159 (Day 159) days post last treatment of primary tumour with ingenol mebutate. Tumour growth is monitored over time. Mice are sacrificed when tumour reached 100 mm^2. Survival curves are generated by assigning a death event when tumours reached 100 mm^2. Control mice had neither prior T7 nor ingenol mebutate treatment.

UVB-induced skin lesions = assay: Field treatment of ~10 cm2 UVB-damaged skin: development of UVB-induced lesions; type: in vivo, SKH1/hr mice
Source text: Outbred SKH1/hr mice were irradiated 3 times per week for 10-11 weeks under 6×TL-12/40 W fluorescent tubes (Phillips, Amsterdam, The Netherlands) mounted in parallel. The lamps emit 54% UVB (280-315 nm) and 46% UVA (315-400 nm) (Rebel et al., 2001). During the irradiation mice were segregated into individual boxes (11.5×20 cm) with a piece of 0.125 mm cellulose acetate placed over the box to prevent any UVC reaching the mice. The mice were 26 cm below the UV lamps. Under these conditions the mice received 1.25 times the minimal erythemal dose (MED) of UVB at each exposure, with the total UVB dose being 37.5 MED. One MED was defined as the minimal UVB dose, which caused erythema-oedema evident by visual examination. […] Such cessation was usually only necessary after the initial 2-3 doses of UVB, as mice become resistant to UVB-induced erythema with repeated exposures.
One to three days after discontinuation of UVB irradiation, a ˜10 cm2 rectangular area located centrally on the dorsa and previously demarcated by a tattoo were treated topically, daily for 2 days with 100 μl of 0.05% ingenol mebutate gel or 100 μl of placebo gel. An untreated group served as an additional control. The mice were monitored weekly for the development of lesions both within and outside the treatment areas. […] The number and size of lesions was monitored over time. All visible lesions were counted. […]

C/C=C(/C)C(=O)O[C@H]1C(C)=C[C@]23C(=O)[C@@H](C=C(CO)[C@@H](O)[C@]12O)[C@H]1[C@@H](C[C@H]3C)C1(C)C [ingenol mebutate]
protection against subsequent T7 challenge (T7 tumours): no protective effect | growth of individual lesions vs control and placebo (UVB-induced skin lesions; lesions within the treatment areas): no significant difference | number of lesions outside the treatment area (UVB-induced skin lesions; ~10 cm2 area): not significantly affected

Source: patent US20140242012A1, “METHODS FOR TREATING UV-DAMAGED SKIN AND SCC TUMORS AND FOR REMOVING TATTOOS WITH TOPICAL INGENOL MEBUTATE” (LEO Laboratories Limited, priority 2011, published 2014)
